Experimental data taken from patent publication US20170027172A1, “USE OF SUBSTITUTE OXO TETRAHYDROQUINOLINE SULFONAMIDES OR SALTS THEREOF FOR RAISING STRESS TOLERANCE OF PLANTS” (BAYER CROPSCIENCE AKTIENGESELLSCHAFT, priority 2014, published 2017).

How the values were obtained:
Brassica napus [1] = assay: Drought stress greenhouse test Part B, visual scoring vs stressed control plants; assay type: in vivo; parameters: key: 0: no effect; 10: slight positive effect; 20: clear positive effect; 30: strong positive effect; conditions: efficacy range of 2-3 pots
Protocol: (§1) Seeds of monocotyledonous and dicotyledonous crop plants were sown in sandy loam in plastic pots, covered with soil or sand and cultivated in a greenhouse under good growth conditions. The trial plants were treated at the early leaf stage (BBCH10-BBCH13). To assure uniform water supply before commencement of stress, the potted plants were supplied with water by dam irrigation prior to substance application.
(§2) The inventive compounds formulated in the form of wettable powders (WP) were sprayed onto the green parts of the plants as an aqueous suspension at an equivalent water application rate of 600 l/ha with addition of 0.2% wetting agent (e.g. agrotin). Substance application was followed immediately by stress treatment of the plants.
(§3) Drought stress was induced by gradual drying out under the following conditions:
(§4) “Day”: 14 hours with illumination at 26-30° C. “Night”: 10 hours without illumination at 18-20° C.
The duration of the respective stress phases was guided mainly by the condition of the stressed control plants. […]
(§5) Once this juncture had been reached, the appearance of the plants treated with test substances was recorded in comparison to the stressed control plants by the following categories:
For each substance and dosage, 2-3 pots were treated and evaluated. […]

[2] = target: T1, phosphatase ABI1 via the co-regulator RCAR11/PYR1 (Arabidopsis thaliana, UniProt O49686+P49597); assay: In vitro inhibition of the phosphatase ABI1 via the co-regulator RCAR11/PYR1, MUP dephosphorylation; assay type: biochemical; parameters: dose or concentration left out as unconfirmed; conditions: in a solution of DMSO and water; fluorescence at 460 nm
T1 sequence (O49686 1-191): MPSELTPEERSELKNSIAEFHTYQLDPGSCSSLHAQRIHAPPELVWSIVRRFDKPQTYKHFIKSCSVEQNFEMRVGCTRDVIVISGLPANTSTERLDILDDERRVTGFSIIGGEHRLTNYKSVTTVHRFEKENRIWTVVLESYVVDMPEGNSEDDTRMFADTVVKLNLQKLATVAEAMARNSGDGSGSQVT
T1 sequence (P49597 1-434): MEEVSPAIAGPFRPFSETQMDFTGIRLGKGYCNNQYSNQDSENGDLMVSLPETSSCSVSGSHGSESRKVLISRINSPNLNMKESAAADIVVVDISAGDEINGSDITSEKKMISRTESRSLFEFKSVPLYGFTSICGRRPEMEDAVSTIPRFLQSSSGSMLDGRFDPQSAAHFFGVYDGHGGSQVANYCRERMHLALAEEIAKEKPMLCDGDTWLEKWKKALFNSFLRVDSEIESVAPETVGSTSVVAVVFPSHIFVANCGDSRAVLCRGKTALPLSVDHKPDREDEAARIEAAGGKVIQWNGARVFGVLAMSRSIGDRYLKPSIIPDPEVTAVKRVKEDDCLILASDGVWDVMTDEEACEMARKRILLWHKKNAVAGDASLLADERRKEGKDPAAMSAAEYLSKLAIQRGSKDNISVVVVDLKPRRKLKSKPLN
Summary of the method: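 Arabidopsis ABI1 (0.15 μg/well) with RCAR11/PYR1 (0.30 μg/well) in Tris-HCl pH 8, NaCl, MnCl2, DTT, Tween20; MUP substrate, 20 min at 35 °C, fluorescence ex 340/em 460 nm. Compounds tested at 5 mM in DMSO/water, optionally pre-treated with porcine liver esterase; inhibition banded ≥90/70/50/30%.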

Brassica napus [3] = assay: Drought stress greenhouse test Part C, visual scoring vs stressed control plants; assay type: in vivo; parameters: key: 0: no effect; 10: slight positive effect; 20: clear positive effect; 30: strong positive effect; conditions: spray application 250 g/ha, efficacy range of 3-4 pots
Protocol: Seeds of monocotyledonous and dicotyledonous crop plants were sown in sandy loam in plastic or wood-fiber pots, covered with soil or sand and cultivated in a greenhouse under good growth conditions. The trial plants were treated at the early leaf stage (BBCH10-BBCH13). To assure uniform water supply before commencement of stress, the potted plants were supplied with water by dam irrigation prior to substance application. The inventive compounds were first formulated as wettable powders (WP) or dissolved in a solvent mixture. The further dilution was effected with water supplemented with 0.2% wetting agent (e.g. agrotin). The finished spray liquor was sprayed onto the green parts of the plant at an equivalent water application rate of 600 l/ha. Substance application was followed immediately by stress treatment of the plants. For this purpose, the wood-fiber pots were transferred in plastic inserts in order to prevent them from subsequently drying out too quickly. Drought stress was induced by gradual drying out under the following conditions: “Day”: 14 hours with illumination at 26-30° C. […] Once this juncture had been reached, the appearance of the plants treated with test substances was recorded in comparison to the stressed control plants by the following categories: [table] For each substance and dosage, 3-4 pots were treated and evaluated. […]

Triticum aestivum [4] = assay: Drought stress greenhouse test Part B, visual scoring vs stressed control plants; assay type: in vivo; conditions: spray application 25 g/ha, efficacy range of 2-3 pots
Protocol: as §1, §2, §3, §4
(§6) The duration of the respective stress phases was guided mainly by the condition of the stressed control plants. It was ended (by re-irrigating and transfer to a greenhouse with good growth conditions) as soon as irreversible damage was observed on the stressed control plants.
(§7) The end of the stress phase was followed by an about 4-7-day recovery phase, during which the plants were once again kept under good growth conditions in a greenhouse. The duration of the recovery phase was guided mainly by when the trial plants had attained a state which enabled visual scoring of potential effects, and is therefore variable.
as §5
For each substance and dosage, 2-3 pots were treated and evaluated.
(§8) BRSNS=Brassica napus TRZAS=Triticum aestivum

Brassica napus [5] = assay: Drought stress greenhouse test Part A, visual scoring vs stressed control plants; assay type: in vivo; parameters: key: 0: no effect; 10: slight positive effect; 20: clear positive effect; 30: strong positive effect; conditions: spray application 250 g/ha, average score of 3 pots
Protocol: as §1, §2, §3
(§9) “Day”: 14 hours with illumination at ˜26-30° C. “Night”: 10 hours without illumination at ˜18-20° C.
as §6
as §7, with “and was” for “and is”
as §5
(§10) In order to rule out any influence on the effects observed by any fungicidal or insecticidal action of the test compounds, it was additionally ensured that the tests proceeded without fungal infection or insect infestation.
(§11) In each test, for each crop and dosage, plants in 3 pots were treated and evaluated separately. The values reported in Tables A-1 to A-2 below for the effects obtained are averages from the scores obtained.
as §8

Triticum aestivum [6] = assay: as above; assay type: in vivo; parameters: key: 0: no effect; 10: slight positive effect; 20: clear positive effect; 30: strong positive effect; conditions: average score of 3 pots
Protocol: as §1, §2, §3, §9, §6
as §7, with “and was” for “and is”
as §5, §10, §11, §8

Row | Compound | ABI1 inhibition [2] | Effect (BRSNS) (Brassica napus [5]) | also measured
1 | O=C1CCc2cc(NS(=O)(=O)Cc3cc(F)cc(F)c3)ccc2N1CC1CC1 [A19-164] | +++ (90%>inhibition≧70%) | – | Effect (BRSNS) (Brassica napus [1]; spray application 2.5 g/ha): 20
2 | N#CCN1C(=O)CCc2cc(NS(=O)(=O)Cc3ccc(Br)cc3)ccc21 [A16-172] | – | – | Effect (BRSNS) (Brassica napus [1]; spray application 25 g/ha): 20; Effect (TRZAS) (Triticum aestivum [4]): 10-20
3 | O=C1CCc2cc(NS(=O)(=O)Cc3ccc(F)cc3)ccc2N1CC1CC1 [A19-158] | ++++ (inhibition≧90%) | 20 | Effect (TRZAS) (Triticum aestivum [6]; spray application 25 g/ha): 20-30; Effect (TRZAS) (Triticum aestivum [6]; spray application 250 g/ha): 20-30

The next lines start with results.

Row | ABI1 inhibition [2] | Compound | Effect (BRSNS) (Brassica napus [5]) | also measured
4 | ++++ (inhibition≧90%) | COCN1C(=O)CCc2cc(NS(=O)(=O)Cc3ccc(C(F)(F)F)cc3)ccc21 [A49-178] | – | Effect (BRSNS) (Brassica napus [3]): 20
5 | ++++ (inhibition≧90%) | O=C1CCc2cc(NS(=O)(=O)Cc3ccc(C(F)(F)F)cc3)ccc2N1CC1CC1 [A19-178] | 20 | –
